Tests used:
[1] = tested on: SJSA1 tumors; assay: Intratumoral dosing regimens of navtemadlin in SJSA1 tumors: tumor volume / % tumor inhibition; assay type: in vivo, human; details: for % TGI Day 24: compared to the vehicle
Protocol: A study was conducted to compare differences between dosing regimens of navtemadlin administered to SJSA1 tumors. S.ISa-1 is a human […] cell line. Navtemadlin is an MDM2 inhibitor compound of the disclosure. […]
(§1) FIG. 2 panels A and B show the effects of intratumoral dosing regimens of navtemadlin in SJSA1 tumors, such as on tumor volume (mm 3) and % body weight change.

[2] = % body weight change in the SJSA1 tumor dosing regimen study; assay type: in vivo; details: SJSA1 tumors
Protocol: A study was conducted to compare differences between dosing regimens of navtemadlin administered to SJSA1 tumors. S.ISa-1 is a human […] cell line. Navtemadlin is an MDM2 inhibitor compound of the disclosure. Navtemadlin was administered intratumorally as 20 μL of 100 mg/mL navtemadlin Q3D×9, 20 μL of 100 mg/mL navtemadlin Q7D×5, 20 μL of 100 mg/mL navtemadlin Q14D×3, and 20 μL of 25 mg/mL navtemadlin QD×31.
as §1

[3] = intratumorally 20 μL of 25 mg/mL QD×31
[4] = intratumorally 20 μL of 100 mg/mL Q3D×9
[5] = intratumorally 20 μL of 100 mg/mL Q7D×5
[6] = intratumorally 20 μL of 100 mg/mL Q14D×3

CC(C)[C@@H](CS(=O)(=O)C(C)C)N1C(=O)[C@@](C)(CC(=O)O)C[C@H](c2cccc(Cl)c2)[C@H]1c1ccc(Cl)cc1 [navtemadlin]
% TGI Day 24 ([1]; Q3Dx21 IT): 94% | % TGI Day 24 ([1]; Q7Dx21 IT): 94% | % TGI Day 24 ([1]; Q14Dx21 IT): 94% | % TGI Day 24 ([1]; QDx21 PO): 94% | tumor volume [1, 3]: significant tumor volume reduction | tumor volume [1, 4]: significant tumor volume reduction | tumor volume [1, 5]: significant tumor volume reduction | tumor volume [1, 6]: significant tumor volume reduction | % body weight change [2, 3]: not significantly affecting % body weight change | % body weight change [2, 4]: not significantly affecting % body weight change | % body weight change [2, 5]: not significantly affecting % body weight change | % body weight change [2, 6]: not significantly affecting % body weight change
